Assays:
white mice = experiment: Animal toxicity bioassay (acute toxicity, intraperitoneal); type: in vivo; conditions: intraperitoneal injection, observed 14 days
Experimental: (§1) Animal Toxicity Bioassay. Acute toxicity was studied on white mice of both sexes with weight ranging between 18-26 grams under intraperitoneal injection of 2% solution of tested compound in starch (the compound was dissolved in starch slime and injected) on the basis of 0.1 ml of solution per 10 g of the animal weight. Each dose was tested on the group of 6 animals that were observed during 14 day period. (This method was approved by the Pharmacology committee of Russian Ministry of Health and has been widely used since 1968.) Averaged lethal dose (LD50) of the compound was computed using results of experiments on 5-7 groups of animals using the method of Litchfield and Wilkinson. (Belenkii M. L. “Elements of quantative determination of the pharmacological effect,” Leningrad, 1963, 71 pages).

[1] = system: human and non-human myeloma; experiment: Activity against myeloma
[2] = system: M. tuberculosis ATCC 25177; experiment: BACTEC 460 radiometric growth inhibition bio-assay; type: cell-based, Mycobacterium tuberculosis; conditions: final concentration of 0.1 mg/ml; BACTEC 12B medium; growth index
[3] = Animal toxicity bioassay (acute toxicity, intraperitoneal); type: in vivo; conditions: both sexes, mouse, in vivo, ip; white mice, intraperitoneal injection, observed 14 days
Experimental: as §1

white mouse = conditions: intraperitoneal injection; cited from earlier work
man = conditions: cited from earlier work

SMILES	LD50 (white mice)	activity against human and non-human myeloma [1]	percent activity against Mycobacterium tuberculosis [2]	LD50 at 14 day [3]	LD50 (lethal dose 50 percent kill) (white mouse)	acute ingestion amount leading to mild toxicity (man; adults, acute ingestion)	ingestion amount that may be fatal (man; adults, acute ingestion)	ingestion amount usually fatal if not appropriately treated (man; adults, acute ingestion)	overall mortality rate for acute isoniazid toxicity (man; estimated)	hepatitis-related death rate (man; individuals who complete a full course of prophylaxis)	mortality rate (man; individuals who develop overt isoniazid-induced hepatitis)	LCL0 (lowest published lethal concentration) (man; man)	overall hepatitis-related death rate (man; patients using isoniazid prophylaxis)
O=C(Oc1c(-c2nc3ccccc3oc2=O)c(=O)n2c(c1C(=O)c1ccccc1)c(=O)oc1ccccc12)c1ccccc1 [1F-18, 4-benzoyl-3-benzoyloxy-2-(2-oxo-2H-1,4-benzoxazin-3-yl)pyrido[2,1-c][1,4]benzoxazin-1,5-dione]	> 2000 mg/kg	100%	95%	–	–	–	–	–	–	–	–	–	–
COc1ccc(C(=O)C(C(=O)Oc2c(C)cc(C)cc2C)=C2Nc3ccccc3OC2=O)cc1 [1F-19, 2,4,6-trimethylphenyl 2-(3,4-dihydro-2-oxo-2H-1,4-benzoxazin-3-ylidene)-3-p-methoxyphenyl-3-oxo-propanoate]	–	–	97%	> 1000 mg/kg	–	–	–	–	–	–	–	–	–
NNC(=O)c1ccncc1 [isoniazid, isonicotinic acid hydrazide]	–	–	–	–	100 mg/kg	1.5 g	6 to 10 g	15 g	19%	23.2-57.9 /100,000	10%	100 mg/kg	approximately 0.001%
